Experimental data reported in US4599362A, “2-aryl-ethyl ether derivatives and insecticidal and acaricidal agents containing said derivatives” (priority 1980, dated 1986).
Read-outs that look alike come from different tables or passages of the source.

Columns and labels:
[1] = tested on: resistant green rice leafhopper (collected at Nakagawara); assay: Test 3: Effect on Resistant Green Rice Leafhopper; format: in vivo, Nephotettix cincticeps Uhler; conditions: Nephotettix cincticeps, 24 h, read-out: Mortality (%) Green Rice Leafhopper Collected at Nakagawara
Method: (§1) To a mixture of 20 parts of the compound of the present invention and 20 parts of Sorpol SM-200 (registered trademark for the product supplied by Toho Chemical Industrial Co., Ltd.) was added 60 parts of xylol, and the mixture was sufficiently blended. The obtained emulsifiable concentrate was diluted at a predetermined concentration with distilled water, and the obtained dilution was used.
(§2) Seedlings (having 2 to 3 leaves) of paddy rice were hydroponically cultured in a pot having a diameter of 5 cm. A chemical dilution having a concentration of 100 or 20 ppm, prepared in the same manner as described in Test 1, was applied with a sprayer at a rate of 3 ml per pot. The treated seedlings were air-dried and covered with a metal net cylinder, and female adults of resistant green rice leafhopper (collected at Nakagawara) and sensitive green rice leafhopper (collected at Chigasaki) were set, respectively, free in the pot at a density of 10 adults per pot. After of 24 hours, the numbers of killed and living adults were counted and the mortality was calculated. The test was made on three pots and the average value was calculated.

[2] = tested on: sensitive green rice leafhopper (collected at Chigasaki); assay: Test 3: Effect on Sensitive Green Rice Leafhopper; format: in vivo; conditions: Nephotettix cincticeps, female adults, 24 hours
Method: as §1, §2

[3] = Test 9: Toxicity Test (acute oral, mice); conditions: mouse, in vivo, po
Method: In the fish toxicity test, the test compound was dissolved in acetone to form a 1% solution, and a predetermined amount of the solution was used. In the mouse toxicity test, the test compound of the present invention was dissolved or suspended in corn oil, and a predetermined amount of the solution or suspension was used.
A predetermined amount of a solution or suspension of a test compound in corn oil was orally administered to male mice having a body weight of 19 to 23 g (0.2 ml per 10 g of the body weight). After 7 days, the number of killed mice was counted and the influences on the mice were examined.

[4] = tested on: Second-instar and fifth-instar larvae of tobacco cutworm; assay: Test 2: Tobacco Cutworm Larva Dipping Test; format: in vivo
Method: as §1
A dilution having a chemical concentration of 100 or 20 ppm was prepared in the same manner as described in Test 1.
Second-instar and fifth-instar larvae of tobacco cutworm were dipped in the dilution for 5 seconds, and the excessive dilution was removed by a filter paper. Then, the larvae were set free in a plastic cup and an artificial diet was supplied thereto. The cup was allowed to stand still in a thermostat chamber maintained at 25° C. After 24 hours, the numbers of the killed and living larvae were counted and the mortality was calculated. The test was made on three cups and the result was expressed by an average value.

two-spotted spider mite = assay: Test 6: Effect on Two-Spotted Spider mite adults; format: in vivo; conditions: Tetranychus urticae; 500 ppm; adults; 24 hours; read-out: Mortality (%)
Method: as §1
A kidney bean leaf disc perforated with a cork borer (15 mm in diameter) was placed on water-impreganated absorbent cotton (2 cm×2 cm), and 10 adults of two-spotted spider mite were set free. A chemical dilution having a concentration of 500 ppm was applied with an applicator in an amount of 3 ml.
The leaf disc-placed absorbent cotton was placed in a thermostat chamber maintained at 25° C. After 24 hours, the number of killed adults was counted and the mortality was calculated. The test was made on three leaf discs and the average value was calculated.

German cockroach = assay: Test 7: Effect on German Cockroach; format: in vivo; conditions: Blattella germanica, male adults, 24 hours, agonized and killed; for mortality at 10 mg/m2: 10 mg/m^2; for mortality at 50 mg/m2: 50 mg/m^2
Method: The bottom face of a high Petri dish having a diameter of 9 cm and a height of 9 cm was treated with 50 or 10 mg/m^2 of a test compound and the dish was air-dried. In order to prevent the adults from escaping from the dish, the inner wall of the dish was treated with butter. Then, 10 male adults of German cockroach were set free in each dish, and the dish was placed in a thermostat chamber maintained at 25° C. After 24 hours, the number of agonized and killed adults was counted. The test was made on two dishes and the average value was calculated.

[5] = tested on: third-instar larvae of diamond back moth; assay: Test 4: Effect on Diamond Back Moth; format: in vivo; conditions: Plutella xylostella, 24 hours
Method: as §1
Cabbage leaves were spread in a plastic cup, and 10 third-instar larvae of diamond back moth were set free in the cup.
A chemical dilution having a concentration of 100 or 20 ppm, prepared in the same manner as described in Test 1, was applied from an applicator at a rate of 3 ml per cup.
After scattering of the chemical dilution, the cup was covered, and after 24 hours, the numbers of killed and living larvae were counted and the mortality was calculated. The test was made on three cups and the average value was calculated.

green peach aphids = assay: Test 5: Effect on green peach Aphid; format: in vivo; conditions: Myzus persicae, 24 hours, mortality class, read-out: Insecticidal Activity
Method: as §1
Seedlings (having 3 to 4 leaves) of an eggplant grown on a pot were inoculated with green peach aphids and the insects were allowed to grow. The number of the insects was counted. A chemical dilution having a concentration of 100 ppm, prepared in the same manner as described in Test 1, was applied with a spray gun at a rate of 10 ml per pot. Then, the pot was placed in a glass green house. After 24 hours, the number of living insects was counted and the mortality was calculated.
The test was made on three pots, and the average value was calculated. In Table 6, mark "A" indicates a mortality higher than 95%, mark "B" indicates a mortality of 80 to 95%, mark "C" indicates a mortality of 50 to 80%, and mark "D" indicates a mortality lower than 50%.

[6] = 20 ppm, second-instar larvae, 24 hours, read-out: Mortality (%) Second-Instar Larvae
[7] = 100 ppm, second-instar larvae, 24 hours, read-out: Mortality (%) Second-Instar Larvae
[8] = topical, 24 h, read-out: Mortality (%) Fifth-Instar Larvae

Row | SMILES | mortality at 20 ppm [1] | mortality at 100 ppm [1] | mortality at 20 ppm [2] | mortality at 100 ppm [2] | LD50 at 168 h [3] | mortality at 20 ppm [4, 6] | mortality at 100 ppm [4, 7] | mortality at 20 ppm [4, 8] | mortality at 100 ppm [4, 8] | mortality at 500 ppm (two-spotted spider mite) | mortality at 10 mg/m2 (German cockroach) | mortality at 50 mg/m2 (German cockroach) | mortality at 20 ppm [5] | mortality at 100 ppm [5] | mortality at 100 ppm (green peach aphids)
1 | COc1ccc(Oc2cc(COCC(C)(C)c3ccc(Cl)cc3)ccc2F)cc1 [Compound 13, 3-(4-Methoxyphenoxy)-4-fluorobenzyl 2-(4-chlorophenyl)-2-methylpropyl ether] | 70% | 100% | 50% | 100% | > 500 mg/kg |  |  |  |  |  |  |  |  |  | 
2 | CC(C)(COCc1ccc(F)c(Oc2ccccc2)c1)c1ccc(OC(F)F)cc1 [Compound 21, 3-Phenoxy-4-fluorobenzyl 2-(4-difluoromethoxyphenyl)-2-methylpropyl ether] | 100% | 100% | 100% | 100% |  | 100% | 100% | 100% | 100% | 100% | 100% | 100% | 100% | 100% | > 95%
3 | CC(C)C(C)(COCc1ccc(F)c(Oc2ccccc2)c1)c1ccc(Cl)cc1 (stereo not shown) [Compound 25, 3-phenoxy-4-fluorobenzyl 2-(4-chlorophenyl)-2,3-dimethylbutyl ether] |  |  |  |  |  |  |  |  |  |  |  |  |  |  | 80 to 95%
4 | CC(C)(COCc1ccc(F)c(Oc2ccccc2)c1)c1ccc(F)cc1 [Compound 29, 3-Phenoxy-4-fluorobenzyl 2-(4-fluorophenyl)-2-methylpropyl ether] | 100% | 100% | 100% | 100% | > 500 mg/kg | 100% | 100% | 100% | 100% | 100% | 100% | 100% | 100% | 100% | 
5 | CCC(COCc1ccc(F)c(Oc2cccc(Cl)c2)c1)c1ccc(Cl)cc1 (stereo not shown) [Compound 34, 3-(3-Chlorophenoxy)-4-fluorobenzyl 2-(4-chlorophenyl)-butyl ether] |  |  |  |  |  |  |  |  |  |  |  |  |  |  | 80 to 95%
6 | CCC(CC)(COCc1ccc(F)c(Oc2ccccc2)c1)c1ccc(Cl)cc1 [Compound 35, 3-Phenoxy-4-fluorobenzyl 2-(4-chlorophenyl)-2-ethylbutyl ether] | 100% | 100% | 90% | 100% | > 500 mg/kg |  |  |  |  |  |  |  |  |  | 
7 | CCOCCOc1ccc(C(C)(C)COCc2ccc(F)c(Oc3ccccc3)c2)cc1 [Compound 39] |  |  |  |  | > 500 mg/kg |  |  |  |  | 100% |  |  |  |  | 
8 | CC(C)Oc1ccc(C(C)(C)COCc2ccc(F)c(Oc3ccccc3)c2)cc1 [Compound 41] | 100% | 100% | 100% | 100% |  | 100% | 100% | 100% | 100% | 90% | 100% | 100% | 100% | 100% | > 95%
9 | CCSc1ccc(C(C)(C)COCc2ccc(F)c(Oc3ccccc3)c2)cc1 [Compound 42, 3-Phenoxy-4-fluorobenzyl 2-(4-ethylthiophenyl)-2-methylpropyl ether] |  |  |  |  |  |  |  |  |  | 100% |  |  | 100% | 100% | > 95%
10 | CCOc1ccc(C(C)COCc2ccc(F)c(Oc3ccccc3)c2)cc1 (stereo not shown) [Compound 43] | 100% | 100% | 100% | 100% |  |  |  |  |  |  | 100% | 100% |  |  | > 95%
11 | Cc1ccc2cc(C(C)(C)COCc3ccc(F)c(Oc4ccccc4)c3)ccc2c1 [Compound 44, 3-Phenoxy-4-fluorobenzyl 2-(6-methyl-2-naphthyl)-2-methylpropyl ether] | 100% | 100% | 100% | 100% |  |  |  |  |  | 95% | 100% | 100% |  |  | > 95%
12 | CC(C)COc1ccc(C(C)(C)COCc2ccc(F)c(Oc3ccccc3)c2)cc1 [Compound 45] | 100% | 100% | 100% | 100% |  |  |  |  |  |  | 90% | 100% | 80% | 100% | > 95%
13 | COc1ccc(C(C)(C)COCc2ccc(F)c(Oc3ccccc3)c2)cc1OC [Compound 56] |  |  |  |  | > 500 mg/kg |  |  |  |  | 100% |  |  |  |  | 
14 | CCOc1ccc(C(C)(C)COCc2ccc(F)c(Oc3ccccc3)c2)cc1Cl [Compound 59] | 100% | 100% | 100% | 100% | > 500 mg/kg | 100% | 100% | 100% | 100% |  | 100% | 100% | 100% | 100% | 
15 | CCOc1ccc(C(C)(C)COCc2ccc(F)c(Oc3ccccc3)c2)cc1OC [Compound 64] | 100% | 100% | 100% | 100% |  |  |  |  |  | 100% | 100% | 100% |  |  | > 95%
16 | CCOc1ccc(C(C)(C)COCc2ccc(F)c(Oc3ccccc3)c2)cc1C [Compound 67] | 100% | 100% | 100% | 100% |  | 100% | 100% | 100% | 100% | 100% | 100% | 100% | 100% | 100% | > 95%
